From US8772344B2, “Pharmaceutical composition for inhibiting osteoclast growth” (National Defense Medical Center, priority 2011, dated 2014)

Experiments:
[1] = tested on: osteoclasts from bone marrow-derived macrophages; assay: Osteoclast formation from bone marrow-derived macrophages (M-CSF and RANKL), TRAP staining and count of multinucleated cells; type: cell-based, DBA/1J mice; details: for effect for inhibiting osteoclast growth: comparison among the nine compounds of table 1, cell system not stated; for inhibiting osteoclasts grown (observation of plates, FIG. 2A) / numbers of osteoclasts as a function of concentration (FIG. 3): bone marrow-derived macrophages; for inhibiting osteoclasts grown (observation of plates, FIG. 2A): 10 nM, 15 nM and 20 nM, effect positive proportional to the concentration; for numbers of osteoclasts as a function of concentration (FIG. 3): compared to the contrast containing M-CSF and RANKL only
Procedure: Bone marrow cells (BMCs) from DBA/1J mice were obtained for osteoclast progenitor cell preparation. The BMCs were isolated from the tibias and femurs of 8-wk-old male mice by flushing the bone marrow cavity with PBS. The cells were then centrifuged at 1000 g for 10 min and exposed to 5 ml of hypotonic ACK buffer ([…], and 0.1 mM EDTA, (pH 7.4)) at room temperature for […] to remove the red blood cells. They were incubated with α-MEM (Gibco BRL) containing penicillin (100 U/ml), streptomycin (100 μg/ml) and 10% heat-inactivated FBS for 12 hr to separate the floating and adherent cells. The floating cells were collected, suspended in α-MEM, counted, seeded onto a 96-well plate at 4×10^4 cells/well, and cultured in α-MEM in the presence of 30 ng/ml M-CSF for 3 days to form macrophage-like osteoclast precursor cells. […] On day 3, the medium was replaced with fresh medium containing M-CSF, RANKL and P. amboinicus.
(§1) TRAP staining was performed as described Han et al. 2007. Briefly, cells were washed with PBS and fixed with 3.7% formaldehyde for 30 min. After washing with PBS, cells were incubated at 37 in a humid and light-protected incubator for 1 hr in the reaction mixture of the Leukocyte Acid Phosphatase Assay kit (Cat. 387, Sigma), as directed by the manufacturer. Cells were washed three times with distilled water and TRAP-positive multinucleated cells containing five or more nuclei were counted under a light microscope. To measure TRAP activity, cells were lysed in 150λ of 0.2% Triton X-100 in PBS, RT for 15 min and then incubated with 100λ of phosphatase substrate solution kit (Cat. CS0740, Sigma) at 37 for 30 min. After incubation, the enzyme reaction mixture was transferred to another plate and the reaction was stopped with 100λ of 0.5N NaOH. Absorbance was measured at 405 nm in a ELISA plate reader, and activity calculated from standard curve generated using p-nitrophenol standards. TRAP activity was normalized to total protein (determined by the BCA assay (Cat. 23225, PIERCE)) as well as to total number of nuclei counted after TRAP and hematoxylin staining of a second, identical 96-well plate run in conjunction with that used for the TRAP assay.
(§2) Please refer to FIG. 1A and FIG. 1B, bone marrow-derived macrophages were plated in a plate A with M-CSF (FIG. 1A) and a plate B with M-CSF and RANKL (FIG. 1B) and murine RAW264.7 were plated in a plate C (FIG. 1C) and a plate D with RANKL (FIG. 1D) separately. After a period, the growth of the osteoclast in the plate A (plate C) is different from that in the plate B (plate D). According to the abovementioned, M-CSF and RANKL secreted by the osteoblasts will promote the growth of the osteoclast. Therefore, the growth of the osteoclast cannot be seen in the plate A. In the contrast, there are a lot of osteoclasts grown in the plate B.

murine RAW264.7 = assay: Osteoclast differentiation of murine RAW264.7 cells (RANKL), TRAP staining and count of multinucleated cells; type: cell-based; details: for inhibiting osteoclasts grown (observation of plates, FIG. 2B): 10 nM, 15 nM and 20 nM, effect positive proportional to the concentration; for numbers of osteoclasts as a function of concentration (FIG. 4): compared to the contrast containing RANKL only
Procedure: Murine RAW264.7 (murine leukemic monocyte/macrophage), a type of osteoclast progenitor cells. The murine monocyte/macrophage cell line RAW264.7 was cultured with DMEM (Gibco BRL) containing 10% heat-inactivated FBS, penicillin (100 U/ml), and streptomycin (100 μg/ml). All cells were grown in a humidified atmosphere containing 5% CO^2 at 37. To induce osteoclast differentiation, RAW264.7 cells were suspended in α-MEM containing 10% FBS, 2 mM […], 100 U/ml penicillin, and 100 μg/ml streptomycin, seeded at 10^4 cells/dish in a 96-well plate and cultured with 100 ng/ml soluble RANKL for 5 days. The medium was changed on day 3.
as §1, §2

| SMILES | effect for inhibiting osteoclast growth [1] | inhibiting osteoclasts grown (observation of plates, FIG. 2A) [1] | numbers of osteoclasts as a function of concentration (FIG. 3) [1] | inhibiting osteoclasts grown (observation of plates, FIG. 2B) (murine RAW264.7) | numbers of osteoclasts as a function of concentration (FIG. 4) (murine RAW264.7) |
| --- | --- | --- | --- | --- | --- |
| O=C(Nc1cccc(C(F)(F)F)c1)c1ccccc1O [Compound 1, 2-hydroxy-N-[3-(trifluoromethyl)phenyl]benzamide] | most significant effect for inhibiting osteoclast growth |  |  |  |  |
| C#Cc1cccc(NC(=O)c2ccccc2O)c1 [Compound 3, N-(3-ethynylphenyl)-2-hydroxybenzamide] | most significant effect for inhibiting osteoclast growth | have the effect for inhibiting osteoclasts grown | can inhibit osteoclasts grown | have the effect for inhibiting osteoclasts grown | can inhibit osteoclasts grown |
| O=C(Nc1ccc(F)c(F)c1)c1ccccc1O [Compound 5, N-(3,4-difluorophenyl)-2-hydroxybenzamide] | most significant effect for inhibiting osteoclast growth | have the effect for inhibiting osteoclasts grown | can inhibit osteoclasts grown | have the effect for inhibiting osteoclasts grown | can inhibit osteoclasts grown |
| O=C(Nc1ccc(Cl)cc1F)c1ccccc1O [Compound 6, N-(4-chloro-2-fluorophenyl)-2-hydroxybenzamide] | most significant effect for inhibiting osteoclast growth | have the effect for inhibiting osteoclasts grown | can inhibit osteoclasts grown | have the effect for inhibiting osteoclasts grown | can inhibit osteoclasts grown |
